#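 Five compound concentrations were applied to cells in 96-well plates for 48 hours; endpoints were derived by simple linear interpolation of the resulting dose-response curve. At the GI50, growth is halved. TGI marks complete inhibition of growth.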
# What was measured:
# Test in all cases: NCI-60 cell line screen, 48 h
# [1] = test system: SN12C renal
# [2] = test system: PC-3 prostate
# [3] = test system: HT29 colon
# [4] = test system: CAKI-1 renal
# [5] = test system: MALME-3M melanoma
# [6] = test system: MDA-MB-435
# [7] = test system: UACC-62 melanoma
# [8] = test system: COLO 205 colon
# [9] = test system: NCI-H460 lung
# [10] = test system: MCF7 breast
# [11] = test system: RPMI-8226 leukemia
# [12] = test system: NCI/ADR-RES ovarian
# [13] = test system: A498 renal
# [14] = test system: MDA-MB-468 breast
# [15] = test system: SF-539 CNS
# [16] = test system: HL-60(TB) leukemia
# [17] = test system: UO-31 renal
# [18] = test system: K-562 leukemia
# [19] = test system: HCC-2998 colon
# [20] = test system: TK-10 renal
# [21] = test system: U251 CNS
# [22] = test system: NCI-H226 lung
# [23] = test system: EKVX NSCLC
# [24] = test system: HOP-62 NSCLC
# [25] = test system: SNB-75 CNS
# [26] = test system: SK-MEL-5 melanoma
# [27] = test system: OVCAR-3 ovarian
# [28] = test system: SF-268 CNS
# [29] = test system: DU-145 prostate
# [30] = test system: HOP-92 NSCLC
# [31] = test system: SNB-19 CNS
# [32] = test system: HCT-116 colon
# [33] = test system: HCT-15 colon
# [34] = test system: SF-295 CNS
# [35] = test system: IGROV1 ovarian
# [36] = test system: MDA-MB-231 breast
# [37] = test system: M14 melanoma
# [38] = test system: OVCAR-8 ovarian
# [39] = test system: NCI-H23 lung
# [40] = test system: SK-OV-3 ovarian
# [41] = test system: MOLT-4 leukemia
# [42] = test system: BT-549 breast
# [43] = test system: OVCAR-5 ovarian
# [44] = test system: RXF 393 renal
# [45] = test system: T-47D breast
# [46] = test system: SK-MEL-2 melanoma
# [47] = test system: CCRF-CEM leukemia
# [48] = test system: HS 578T breast
# [49] = test system: SR leukemia
# [50] = test system: ACHN renal
# [51] = test system: OVCAR-4 ovarian
# [52] = test system: SW-620 colon
# [53] = test system: A549 NSCLC
# [54] = test system: LOX IMVI melanoma
# [55] = test system: UACC-257 melanoma
# [56] = test system: KM12 colon
# [57] = test system: 786-0 renal
# [58] = test system: SK-MEL-28 melanoma
# [59] = test system: NCI-H522 lung
structure (smiles),measurement,setting,value
O=C(Cc1ccc2c(c1)CN(C1CCC(=O)NC1=O)C2=O)NCc1cccc2ccccc12 (configuration not stated),GI50,[1],< 0.01 µM
same,TGI,[1],0.0882 µM
same,GI50,[2],< 0.01 µM
same,TGI,[2],0.177 µM
same,GI50,[3],0.0102 µM
same,TGI,[3],0.108 µM
same,GI50,[4],< 0.01 µM
same,TGI,[4],6.38 µM
same,GI50,[5],< 0.01 µM
same,TGI,[5],< 0.01 µM
same,GI50,[6],< 0.01 µM
same,TGI,[6],0.163 µM
same,GI50,[7],0.0403 µM
same,TGI,[7],1.42 µM
same,GI50,[8],< 0.01 µM
same,TGI,[8],< 0.01 µM
same,GI50,[9],5.17 µM
same,TGI,[9],> 100 µM
same,GI50,[10],< 0.01 µM
same,TGI,[10],> 33.3 µM
same,GI50,[11],< 0.0113 µM
same,TGI,[11],> 100 µM
same,GI50,[12],0.3 µM
same,TGI,[12],3.08 µM
same,GI50,[13],< 0.01 µM
same,TGI,[13],0.0728 µM
same,GI50,[14],< 0.01 µM
same,TGI,[14],< 0.01 µM
same,GI50,[15],< 0.0103 µM
same,TGI,[15],0.114 µM
same,GI50,[16],< 0.01 µM
same,GI50,[17],< 0.0115 µM
same,TGI,[17],0.0877 µM
same,GI50,[18],< 0.01 µM
same,TGI,[18],> 100 µM
same,GI50,[19],< 0.01 µM
same,TGI,[19],< 0.01 µM
same,GI50,[20],< 0.0169 µM
same,TGI,[20],0.751 µM
same,GI50,[21],0.0394 µM
same,TGI,[21],> 100 µM
same,GI50,[22],< 0.01 µM
same,TGI,[22],0.041 µM
same,GI50,[23],< 0.0224 µM
same,GI50,[24],< 0.01 µM
same,TGI,[24],< 0.0321 µM
same,GI50,[25],< 0.01 µM
same,TGI,[25],< 0.012 µM
same,GI50,[26],< 0.01 µM
same,TGI,[26],< 0.0119 µM
same,GI50,[27],0.0259 µM
same,TGI,[27],1.17 µM
same,GI50,[28],< 0.01 µM
same,TGI,[28],0.26 µM
same,GI50,[29],0.0388 µM
same,GI50,[30],< 0.01 µM
same,TGI,[30],< 0.01 µM
same,GI50,[31],< 0.01 µM
same,TGI,[31],0.0742 µM
same,GI50,[32],0.0546 µM
same,TGI,[32],> 100 µM
same,GI50,[33],< 0.01 µM
same,TGI,[33],0.114 µM
same,GI50,[34],< 0.01 µM
same,TGI,[34],0.129 µM
same,GI50,[35],< 0.01 µM
same,TGI,[35],< 0.0157 µM
same,GI50,[36],< 0.01 µM
same,TGI,[36],< 0.01 µM
same,GI50,[37],< 0.01 µM
same,TGI,[37],0.0334 µM
same,GI50,[38],< 0.01 µM
same,GI50,[39],0.0886 µM
same,TGI,[39],3.99 µM
same,GI50,[40],< 0.01 µM
same,TGI,[40],0.147 µM
same,GI50,[41],< 0.01 µM
same,TGI,[41],> 100 µM
same,GI50,[42],< 0.01 µM
same,TGI,[42],< 0.01 µM
same,GI50,[43],< 0.01 µM
same,TGI,[43],0.0409 µM
same,GI50,[44],< 0.01 µM
same,TGI,[44],0.0257 µM
same,GI50,[45],< 0.01 µM
same,TGI,[45],< 0.01 µM
same,GI50,[46],< 0.01 µM
same,TGI,[46],0.0192 µM
same,GI50,[47],< 0.01 µM
same,TGI,[47],0.105 µM
same,GI50,[48],< 0.01 µM
same,TGI,[48],< 0.0179 µM
same,GI50,[49],0.0929 µM
same,TGI,[49],> 100 µM
same,GI50,[50],0.0526 µM
same,TGI,[50],0.904 µM
same,GI50,[51],< 0.01 µM
same,TGI,[51],0.046 µM
same,GI50,[52],< 0.01 µM
same,GI50,[53],0.0146 µM
same,TGI,[53],> 100 µM
same,GI50,[54],0.0415 µM
same,TGI,[54],2.51 µM
same,GI50,[55],0.35 µM
same,TGI,[55],> 100 µM
same,GI50,[56],< 0.01 µM
same,TGI,[56],0.461 µM
same,GI50,[57],< 0.01 µM
same,GI50,[58],< 0.0114 µM
same,TGI,[58],0.189 µM
same,GI50,[59],0.0291 µM
same,TGI,[59],0.351 µM
